The subject of test [1] is LPS-induced death. Put plainly: Prevention of LPS-induced death in mice. The conditions noted are these: 30 mg/kg ip 2 h before LPS (2 mg/mouse). It counts as in vivo. How it is done:
Forty mice were divided into three groups, two groups consisting of ten mice and one group of twenty mice. Administrations of vehicles, LPS, and Compound A were intraperitoneal. Group 1 (n=10) mice received vehicle (phosphate buffered saline for LPS, 200 μl/mouse) at time zero and vehicle for Compound A (200 μl/mouse) 2 hours later. Group 2 (n=10) mice received the vehicle for Compound A at zero time (200 μl/mouse) and LPS (2 mg in 200 μl/mouse) for two hours later. Group 3 (n=20) received Compound A (30 mg/kg in 200 μl of vehicle) at time zero and LPS (2 mg in 200 μl/mouse) two hours later.

Test [2] relates to nucleus basalis magnocellularis. In words: T-maze rewarded alternation task after bilateral nbm lesion. It counts as in vivo, Sprague-Dawley rats. The conditions noted are these: 0.1 mg/kg s.c. every other day until 12 days post-lesion; tested 10-12 weeks later. How it is done:
Adult male Sprague-Dawley rats were first trained to alternate responses in a standard rewarded-alternation T-maze task (Hepler et al., J. Neurosci., 5:866-873, 1985). The animals then received bilateral lesions of the nucleus basalis magnocellularis, to impair performance in T-maze tasks (e.g., Salamone et al., Behav. Brain Res., 13:63-70, 1984). Beginning 18 hours after the lesion, the animals received Compound A via subcutaneous injection (0.1 mg/kg) every other day until 12 days post-lesion. Twenty-four hours following the last injection all animals were placed in the T-maze once a day, until their alternation performance reached pre-operative levels, which took anywhere from 3 to 10 days. After reaching criterion, the animals were not further tested for 8-10 weeks. At that point the animals were again placed in the T-maze, once a day until they reached pre-operative performance.

One may read the mortality as the percentage killed. Read a high mortality as a strong lethal effect. With `CCSCc1ccc2c(c1)c1c3c(c4c5cc(CSCC)ccc5n5c4c1n2C1CC(O)(C(=O)OC)C5(C)O1)CNC3=O` (stereo not shown) [Compound A], in test [1], the “mortality one week after LPS” value amounted to 80%. Further, the “mortality at 20 hours after LPS” value in test [1] (LPS alone 90% within 20 hours) was found to be 25%. Further, the “mortality at 42 hours after LPS” value in test [1] (LPS alone 100% by 42 hours) is 75%. In test [2], the “total number of errors in T-maze task compared to normals” value is given as “not different from normals”.

The values are drawn from patent US6184217A (Cephalon, Inc., priority 1997, dated 2001).
